Assay results taken from US20090269794A1, “SCREENING METHOD FOR COMPOUND INHIBITING DEVELOPMENT OR PROGRESSION OF FAMILIAL AMYOTROPHIC LATERAL SCLEROSIS AND DIAGNOSTIC METHOD FOR FAMILIAL AMYOTROPHIC LATERAL SCLEROSIS” (HISAMITSU PHARMACEUTICAL CO., INC., priority 2005, published 2009).

Tests used:
NEDL1 mRNA = NEDL1 mRNA expression by semi-quantitative RT-PCR in SK-N-BE (2) C cells; format: cell-based, human; details: 250 μM DFO for 24 hours, FIG. 2
Method: Human neuroblastoma SK-N-BE (2) C cells were cultured in Dulbecco's […] (DMEM) containing 10% heat treated fetal bovine serum (FBS). Hypoxia culturing was carried out in a 2% oxygen concentration, with the cells in a Napco automatic O2/CO2 cell culture apparatus (Waken Co., Ltd.). DFO (Sigma) treatment was carried out by exposing the cells to 250 μM DFO for 24 hours.
(Reverse Transcription Polymerase Chain Reaction (RT-PCR)) TRIZOL reagent (Invitrogen Corp.) was used according to the manufacturer's manual to prepare total RNA from untreated, hypoxia-treated, DFO-treated cells and the transfected cells. RT-PCR was conducted in the following manner. The prepared total RNA (1 μg/2.5 μL) was incubated at 75° C. for 5 minutes and then allowed to stand on ice for 5 minutes. The prepared RNA was added to a mixture of 0.5 μL RNase inhibitor (40 units/μL, Toyobo, Ltd.), 0.5 μL M-MLV reverse transcriptase (200 units/μL, Invitrogen Corp.), 1 μL 50×dNTPs (2 mM each), 0.5 μL oligo(dT) primer (0.5 mg/mL, Invitrogen Corp.), 2 μL 5×first-strand buffer (Invitrogen Corp.) and 1 μL 0.1 M dithiothreitol, and the mixture was incubated for 10 minutes at room temperature, 45 minutes at 37° C. and 3 minutes at 95° C. to prepare cDNA. The prepared cDNA was used as template with the primers under the following PCR conditions to amplify the NEDL1 and β-actin gene cDNA fragments. […]

HIF-1α = details: cells exposed to DFO, normal oxygen conditions, Non-patent document 12; cited from earlier work

For `CC(=O)N(O)CCCCCNC(=O)CCC(=O)N(O)CCCCCNC(=O)CCC(=O)N(O)CCCCCN` [DFO, desferrioxamine], the “NEDL1 mRNA expression” value (NEDL1 mRNA) is given as “increased” and the “HIF-1α detection as protein” value (HIF-1α) is given as “detected”.
